Test results as given in patent US11980689B2 (AVALYN PHARMA INC., priority 2013, dated 2024).
“Also recorded” adds a separate entry of the source.

Experiments:
PI3K = conditions: cited from earlier work
p110-γ and p110-δ = conditions: cited from earlier work
p110a = p110a (Homo sapiens, UniProt P42336); conditions: cited from earlier work
breast cancer stem cells = conditions: mouse, in vivo; cited from earlier work
mTOR = mTOR (Homo sapiens, UniProt P42345); conditions: cited from earlier work
lung cancer = conditions: cited from earlier work
JAK2V617F = JAK2V617F (Homo sapiens, UniProt O60674, V617F); conditions: cited from earlier work
CYP3A4 = CYP3A4 (Homo sapiens, UniProt P08684); conditions: cited from earlier work
[1] = single- and repeat-dosing; cited from earlier work
c-kit = c-kit (Homo sapiens, UniProt P10721); conditions: kinase activity at 5 μM; cited from earlier work
[2] = system: KIT with mutations in the juxtamembrane domain-coding region; conditions: cited from earlier work
[3] = system: Hepatitis C viral-related liver disease; conditions: oral; cited from earlier work
kit in H526 cells = kit in H526 cells (Homo sapiens, UniProt P10721); conditions: pretreatment of H526 cells; cited from earlier work
[4] = target: epidermal growth factor (EGF) receptor intracellular domain (Homo sapiens, UniProt P00533); conditions: purified enzymes; cited from earlier work
[5] = target: fibroblast growth factor receptor 1 (FGF-R1) (Homo sapiens, UniProt P11362); conditions: purified enzymes; cited from earlier work
chelation of magnesium = type: physicochemical
cardiac fibrosis = conditions: rat, in vivo; cited from earlier work
in vivo = conditions: Sprague-Dawley, rat
liver fibrosis = conditions: cited from earlier work
fibrosis = conditions: rat, in vivo; cited from earlier work
[6] = system: KIT with mutations affecting the activation loop; conditions: cited from earlier work
[7] = system: Alpha-1 glycoprotein (AGP); conditions: cited from earlier work
chelation of iron(III) = type: physicochemical
IPF = conditions: cited from earlier work
VEGF-R1 = VEGF-R1 (Homo sapiens, UniProt P17948); conditions: purified enzymes; cited from earlier work
VEGF-R2 = VEGF-R2 (Homo sapiens, UniProt P35968); conditions: purified enzymes; cited from earlier work
[8] = system: doxorubicin-induced toxicity (heart and kidney); conditions: mortality, abdominal fluid, cardiac and renal lesions; cited from earlier work
TIE-2 [TEK] = TIE-2 [TEK] (Homo sapiens, UniProt Q02763); conditions: purified enzymes; cited from earlier work
[9] = system: radiation-induced lung fibrosis; conditions: mouse, in vivo; cited from earlier work
[10] = system: bleomycin-induced pulmonary fibrosis; conditions: cited from earlier work
PDGFR-β = PDGFR-β (Homo sapiens, UniProt P09619); conditions: cellular studies; cited from earlier work
PDGFR-α = PDGFR-α (Homo sapiens, UniProt P16234); conditions: cellular studies; cited from earlier work
c-MET = c-MET (Homo sapiens, UniProt P08581); conditions: purified enzymes; cited from earlier work
[11] = system: committed progenitor cells from patients with CML; conditions: cited from earlier work
CML = conditions: cited from earlier work
[12] = system: A10 rat aorta smooth muscle cells; conditions: cited from earlier work
TEL-PDGFRβ = target: T1, TEL-PDGFRβ (Homo sapiens, UniProt P09619); conditions: mouse, in vivo; cited from earlier work
T1 construct: host or cells: transgenic mice; the other entry of the earlier key: ETV6 (P41212, Transcription factor ETV6)

KIT receptor = conditions: cited from earlier work
[13] = system: dimethylnitrosamine-induced hepatic fibrosis; conditions: cited from earlier work
[14] = in vivo
[15] = Sprague-Dawley, rat, in vivo, po, 5.6 mg/kg
renal fibrosis = conditions: rat, in vivo; cited from earlier work
[16] = system: kidney fibrosis following diabetic challenge; conditions: oral; cited from earlier work
heavy metal challenge = conditions: oral; cited from earlier work

T1 sequence (P09619 554-1106 limits assumed): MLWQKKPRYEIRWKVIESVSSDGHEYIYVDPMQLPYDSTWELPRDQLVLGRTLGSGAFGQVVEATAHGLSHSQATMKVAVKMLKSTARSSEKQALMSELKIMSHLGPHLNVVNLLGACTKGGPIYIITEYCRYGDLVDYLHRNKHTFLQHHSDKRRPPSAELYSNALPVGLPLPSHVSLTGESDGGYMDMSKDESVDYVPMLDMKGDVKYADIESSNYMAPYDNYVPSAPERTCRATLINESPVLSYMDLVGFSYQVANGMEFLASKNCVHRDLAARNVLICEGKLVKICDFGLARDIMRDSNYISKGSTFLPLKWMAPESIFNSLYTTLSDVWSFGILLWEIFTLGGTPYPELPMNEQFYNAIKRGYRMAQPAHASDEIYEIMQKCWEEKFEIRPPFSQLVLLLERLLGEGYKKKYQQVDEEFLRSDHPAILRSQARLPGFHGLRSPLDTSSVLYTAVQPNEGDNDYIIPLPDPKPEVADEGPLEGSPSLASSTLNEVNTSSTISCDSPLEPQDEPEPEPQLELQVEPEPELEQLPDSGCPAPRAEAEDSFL
VEGF-R2, sequence (P35968 20-1356, species assumed): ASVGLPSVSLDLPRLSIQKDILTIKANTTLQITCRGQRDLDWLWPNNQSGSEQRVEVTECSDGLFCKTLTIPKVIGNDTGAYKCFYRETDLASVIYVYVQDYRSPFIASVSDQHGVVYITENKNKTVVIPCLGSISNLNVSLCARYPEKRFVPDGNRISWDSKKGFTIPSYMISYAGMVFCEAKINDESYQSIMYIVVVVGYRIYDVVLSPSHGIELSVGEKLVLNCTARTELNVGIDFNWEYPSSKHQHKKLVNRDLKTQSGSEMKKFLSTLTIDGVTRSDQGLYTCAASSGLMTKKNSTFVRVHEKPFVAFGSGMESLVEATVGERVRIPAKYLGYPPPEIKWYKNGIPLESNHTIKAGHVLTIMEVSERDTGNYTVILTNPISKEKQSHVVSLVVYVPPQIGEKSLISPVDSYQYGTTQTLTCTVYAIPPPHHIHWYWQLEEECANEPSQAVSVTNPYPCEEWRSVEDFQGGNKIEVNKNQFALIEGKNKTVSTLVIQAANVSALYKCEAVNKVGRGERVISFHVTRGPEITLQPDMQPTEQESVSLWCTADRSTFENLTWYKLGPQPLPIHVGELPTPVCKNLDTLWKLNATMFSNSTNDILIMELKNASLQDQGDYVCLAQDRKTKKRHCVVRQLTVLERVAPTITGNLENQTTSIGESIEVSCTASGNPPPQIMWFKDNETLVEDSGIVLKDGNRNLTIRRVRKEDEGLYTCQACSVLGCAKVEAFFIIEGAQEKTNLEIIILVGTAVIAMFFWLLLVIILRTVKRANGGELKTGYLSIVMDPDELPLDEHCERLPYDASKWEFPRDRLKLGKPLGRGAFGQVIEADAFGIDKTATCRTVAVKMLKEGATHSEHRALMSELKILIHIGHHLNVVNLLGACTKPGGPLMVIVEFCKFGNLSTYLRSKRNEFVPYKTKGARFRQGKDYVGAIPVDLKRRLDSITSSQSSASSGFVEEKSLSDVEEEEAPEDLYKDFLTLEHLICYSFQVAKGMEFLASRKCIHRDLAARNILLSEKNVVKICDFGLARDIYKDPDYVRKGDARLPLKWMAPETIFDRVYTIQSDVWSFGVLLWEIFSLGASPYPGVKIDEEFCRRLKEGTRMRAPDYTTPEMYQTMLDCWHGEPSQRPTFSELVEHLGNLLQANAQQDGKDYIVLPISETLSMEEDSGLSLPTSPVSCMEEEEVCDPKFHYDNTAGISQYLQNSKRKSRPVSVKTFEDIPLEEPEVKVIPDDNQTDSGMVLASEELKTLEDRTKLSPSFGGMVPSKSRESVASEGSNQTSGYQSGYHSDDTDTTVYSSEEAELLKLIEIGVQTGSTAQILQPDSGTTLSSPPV
TIE-2 [TEK], sequence (Q02763 23-1124): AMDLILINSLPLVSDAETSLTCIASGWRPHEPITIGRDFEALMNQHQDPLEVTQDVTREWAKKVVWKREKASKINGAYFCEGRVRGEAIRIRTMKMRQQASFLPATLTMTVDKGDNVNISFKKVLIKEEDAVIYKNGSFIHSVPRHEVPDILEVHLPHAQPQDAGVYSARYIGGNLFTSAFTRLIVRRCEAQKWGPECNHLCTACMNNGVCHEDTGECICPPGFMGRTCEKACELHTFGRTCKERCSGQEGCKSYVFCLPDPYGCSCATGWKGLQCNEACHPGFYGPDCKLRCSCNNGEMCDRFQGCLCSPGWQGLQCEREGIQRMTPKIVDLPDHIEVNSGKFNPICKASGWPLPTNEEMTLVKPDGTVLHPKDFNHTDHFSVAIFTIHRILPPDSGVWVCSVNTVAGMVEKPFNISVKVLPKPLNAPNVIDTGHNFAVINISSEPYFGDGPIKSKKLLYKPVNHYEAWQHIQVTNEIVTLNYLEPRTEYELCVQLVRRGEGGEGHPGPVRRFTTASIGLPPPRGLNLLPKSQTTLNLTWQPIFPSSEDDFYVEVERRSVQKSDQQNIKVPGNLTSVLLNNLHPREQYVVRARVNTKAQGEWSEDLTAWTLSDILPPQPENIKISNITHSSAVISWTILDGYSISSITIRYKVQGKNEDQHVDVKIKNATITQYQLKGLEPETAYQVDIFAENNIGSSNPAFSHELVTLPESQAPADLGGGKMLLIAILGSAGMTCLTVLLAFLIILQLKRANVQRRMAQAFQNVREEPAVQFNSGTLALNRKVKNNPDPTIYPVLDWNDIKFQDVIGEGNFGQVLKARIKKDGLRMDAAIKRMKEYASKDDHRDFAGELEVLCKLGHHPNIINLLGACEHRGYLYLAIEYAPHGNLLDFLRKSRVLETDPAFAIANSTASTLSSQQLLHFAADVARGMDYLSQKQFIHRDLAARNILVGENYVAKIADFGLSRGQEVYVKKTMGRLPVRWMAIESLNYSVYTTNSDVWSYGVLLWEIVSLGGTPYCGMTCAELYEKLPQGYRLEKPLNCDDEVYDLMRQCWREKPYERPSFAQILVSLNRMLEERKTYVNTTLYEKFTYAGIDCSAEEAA
epidermal growth factor (EGF) receptor intracellular domain, sequence (P00533 669-1210 limits assumed): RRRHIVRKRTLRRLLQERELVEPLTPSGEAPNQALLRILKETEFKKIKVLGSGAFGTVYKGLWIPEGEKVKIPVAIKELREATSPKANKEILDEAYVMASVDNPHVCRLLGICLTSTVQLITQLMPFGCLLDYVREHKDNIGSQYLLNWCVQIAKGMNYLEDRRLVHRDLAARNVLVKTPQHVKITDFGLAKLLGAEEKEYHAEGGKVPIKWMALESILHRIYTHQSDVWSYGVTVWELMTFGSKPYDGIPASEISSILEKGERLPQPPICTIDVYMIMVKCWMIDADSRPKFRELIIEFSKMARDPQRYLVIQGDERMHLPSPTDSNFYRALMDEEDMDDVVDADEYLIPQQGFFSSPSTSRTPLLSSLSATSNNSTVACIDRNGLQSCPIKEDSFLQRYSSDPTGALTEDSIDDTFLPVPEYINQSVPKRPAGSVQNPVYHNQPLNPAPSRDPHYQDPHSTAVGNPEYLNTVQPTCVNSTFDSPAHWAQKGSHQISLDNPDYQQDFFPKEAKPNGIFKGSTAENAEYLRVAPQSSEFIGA
fibroblast growth factor receptor 1 (FGF-R1), sequence (P11362 22-822, species assumed): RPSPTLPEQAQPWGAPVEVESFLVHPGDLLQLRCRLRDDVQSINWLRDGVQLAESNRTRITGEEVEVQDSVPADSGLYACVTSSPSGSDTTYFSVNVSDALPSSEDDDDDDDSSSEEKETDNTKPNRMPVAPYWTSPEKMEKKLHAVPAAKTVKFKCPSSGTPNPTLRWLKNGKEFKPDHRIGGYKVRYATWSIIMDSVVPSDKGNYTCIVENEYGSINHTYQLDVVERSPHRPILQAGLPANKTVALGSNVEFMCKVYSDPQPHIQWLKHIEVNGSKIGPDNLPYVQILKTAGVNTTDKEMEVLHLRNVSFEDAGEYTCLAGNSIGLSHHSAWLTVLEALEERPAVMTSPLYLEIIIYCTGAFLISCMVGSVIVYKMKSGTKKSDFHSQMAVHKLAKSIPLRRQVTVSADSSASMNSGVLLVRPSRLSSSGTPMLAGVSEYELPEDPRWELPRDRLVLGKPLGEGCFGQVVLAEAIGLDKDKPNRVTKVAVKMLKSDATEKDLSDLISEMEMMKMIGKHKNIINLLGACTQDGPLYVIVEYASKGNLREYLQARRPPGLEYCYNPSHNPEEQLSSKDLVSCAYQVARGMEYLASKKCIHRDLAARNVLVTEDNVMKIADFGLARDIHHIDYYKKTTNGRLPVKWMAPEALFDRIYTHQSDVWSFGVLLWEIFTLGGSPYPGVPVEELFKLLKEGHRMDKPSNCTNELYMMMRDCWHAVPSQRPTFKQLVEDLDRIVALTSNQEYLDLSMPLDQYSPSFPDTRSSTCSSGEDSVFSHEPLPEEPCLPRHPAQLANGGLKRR
CYP3A4, sequence (P08684 whole entry): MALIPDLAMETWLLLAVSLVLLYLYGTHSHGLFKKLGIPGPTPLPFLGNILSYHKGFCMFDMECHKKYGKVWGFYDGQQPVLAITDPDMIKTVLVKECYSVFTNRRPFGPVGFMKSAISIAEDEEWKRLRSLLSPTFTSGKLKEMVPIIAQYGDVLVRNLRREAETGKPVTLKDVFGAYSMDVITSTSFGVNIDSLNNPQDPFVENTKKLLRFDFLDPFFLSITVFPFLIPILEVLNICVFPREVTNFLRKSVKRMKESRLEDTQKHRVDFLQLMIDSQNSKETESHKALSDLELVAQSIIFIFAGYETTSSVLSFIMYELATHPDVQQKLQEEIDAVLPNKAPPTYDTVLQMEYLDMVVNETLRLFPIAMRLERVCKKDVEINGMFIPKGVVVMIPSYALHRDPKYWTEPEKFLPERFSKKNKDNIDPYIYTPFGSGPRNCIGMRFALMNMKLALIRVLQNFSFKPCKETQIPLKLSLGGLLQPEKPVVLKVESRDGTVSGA

Nc1nc(N)c2nc(-c3cccc(O)c3)c(-c3cccc(O)c3)nc2n1 [TG100-115]
better potency than against the other isoforms (p110-γ and p110-δ): 5-10 fold

FC(F)c1nc2ccccc2n1-c1nc(N2CCOCC2)nc(N2CCOCC2)n1 [ZSTK474]
inhibition (p110a): potent inhibitor

CC[C@@H](C(=O)[C@@H](C)[C@@H](O)[C@H](C)[C@@H]1O[C@@H]([C@@H](CC)C(=O)O)CC[C@@H]1C)[C@H]1O[C@]2(C=C[C@@H](O)[C@]3(CC[C@@](C)([C@H]4CC[C@](O)(CC)[C@H](C)O4)O3)O2)[C@H](C)C[C@@H]1C [Salinomycin]
effectiveness relative to paclitaxel (breast cancer stem cells): at least 100 times

Cc1c(CN2CCN(S(C)(=O)=O)CC2)sc2c(N3CCOCC3)nc(-c3cnc(N)nc3)nc12 [GNE-477]
IC50 (mTOR): 21 nM

C#Cc1cccc(Nc2ncnc3cc(OCCOC)c(OCCOC)cc23)c1 [Erlotinib]
response rate (lung cancer; EGFR mutation positive patients): approximately 60% | time to resistance from the start of treatment (lung cancer; human, in vivo): 8-12 months | inhibition of JAK2V617F activity (JAK2V617F): potent inhibitor | metabolism (CYP3A4): mainly metabolized

O=C1NC(=O)/C(=C/c2ccc3nccc(-c4ccncc4)c3c2)S1 [GSK1059615]
exposure [1]: lack of sufficient exposure

Cc1ccc(NC(=O)c2ccc(CN3CCN(C)CC3)cc2)cc1Nc1nccc(-c2cccnc2)n1 [imatinib, 4-[(4-methylpiperazin-1-yl)methyl]-N-(4-methyl-3-{[4-(pyridin-3-yl)pyrimidin-2-yl]amino}phenyl)benzamide]
tyrosine phosphorylation and in vitro kinase activity of c-kit (c-kit): dose-dependent inhibition | inhibition of KIT kinase activity [2]: effective | fibrosis and quality of life [3]: decreased fibrosis and improved quality of life | SCF-mediated kit activation (kit in H526 cells): inhibited | inhibition of EGF receptor intracellular domain [4]: did not inhibit | inhibition of kinase activity [5]: weak or no inhibition | imatinib molecules to one magnesium ion (chelation of magnesium): two | fibrosis (cardiac fibrosis): reversed and prevented fibrosis | AUC (in vivo; inhaled or intranasal, 1 mg/kg): 40 ng·h/mL | Cmax (in vivo; inhaled or intranasal, 1 mg/kg): 20 ng/mL | AUC (in vivo; po, 5.6 mg/kg): 4900 ng·h/mL | Cmax (in vivo; po, 5.6 mg/kg): 1100 ng/mL | inhibition of liver fibrosis, early treatment (liver fibrosis; Days 0 to 21): effective | inhibition of liver fibrosis, late treatment (liver fibrosis; Days 22 to 35): not late | fibrosis (fibrosis): reversal of fibrosis | sensitivity of KIT mutants [6]: resistant | binding by AGP [7]: high affinity | imatinib molecules per iron(III) ion (chelation of iron(III)): three | secondary outcome parameters (IPF; DICO, change in PVC, 6-minute walk test): no benefit | incidence of AE-related drop-outs (IPF; dose reduction 600 mg to 400 mg daily allowed): 22% | primary outcome, time to disease progression (IPF; in vivo): no benefit | inhibition of kinase activity (VEGF-R1): weak or no inhibition | inhibition of kinase activity (VEGF-R2): weak or no inhibition | severity of doxorubicin-induced toxicity [8]: reduced the severity | inhibition of kinase activity (TIE-2 [TEK]): weak or no inhibition | effect on lung fibrosis [9]: antifibrotic effects | development of pulmonary fibrosis, early treatment ([10]; Days 0 to 15): significantly prevented | development of pulmonary fibrosis, late treatment ([10]; Days 15 to 28): did not | development of pulmonary fibrosis ([10]; mouse, in vivo): inhibited the development of pulmonary fibrosis | receptor inhibition (PDGFR-β): potent inhibition | receptor inhibition (PDGFR-α): potent inhibition | inhibition of kinase activity (c-MET): weak or no inhibition | colony formation [11]: selective inhibition | patients achieving a complete haematological response (CML; chronic-phase CML, doses of 300 mg or higher): 98% | maximal tolerated dose (CML; oral 25 to 1,000 mg per day): no maximal tolerated dose was identified | serum-induced growth [12]: did not affect | survival of the animals (TEL-PDGFRβ): prolonged survival | tumor formation (TEL-PDGFRβ): inhibited tumor formation | KIT autophosphorylation (KIT receptor; cell line from a GIST patient with an activating Kit mutation): suppress | autophosphorylation of the KIT receptor (KIT receptor; upon binding of stem-cell factor (SCF)): potently inhibited; also recorded: blocks | mRNA for type I collagen and transforming growth factor-beta in the liver ([13]; in vivo): suppressed | effect against hepatic fibrosis ([13]; oral): protective effect | hepatic hydroxyproline levels ([13]; oral): reduced | lung-surface cations [14]: depletion of essential lung-surface cations | Lung AUC [15]: 64.1 mg·h/kg | Lung Cmax [15]: 13.0 µg/g | action in renal fibrosis (renal fibrosis): antifibrotic action | effect on fibrosis following diabetic challenge [16]: fibrosis reversal | effect against heavy metal challenge (heavy metal challenge): protective effect
